Laboratory results published in patent US4870097A, “Pharmaceutical use of derivatives of tryptophan” (priority 1984, dated 1989).

What was measured:
[1] = test system: analgesic activity of morphine; assay: Tail Flick Test: increase in the analgesic effect of morphine; type: in vivo, rats; settings: for percentage variation in the latency of the pain sensation, 10' / percentage variation in the latency of the pain sensation, 20' / percentage variation in the latency of the pain sensation, 30' / percentage variation in the latency of the pain sensation, 45' / percentage variation in the latency of the pain sensation, 60' / percentage variation in the latency of the pain sensation, 90' / M(10'-90') average percentage variation: compound 10 mg/kg i.p. + morphine 2 mg/kg (row Morphine: alone); for percentage variation in the latency of the pain sensation, 10' / percentage variation in the latency of the pain sensation, 20' / percentage variation in the latency of the pain sensation, 30' / percentage variation in the latency of the pain sensation, 45' / percentage variation in the latency of the pain sensation, 60' / percentage variation in the latency of the pain sensation, 90': ± S.E.; for M(10'-90') average percentage variation: mean 10'-90'; for Potency ratio relative to morphine alone: rat, in vivo
Description: Increase in the analgesic effect of analgesic-narcotic drugs in rats in the Tail Flick Test
The method is that described by Harris et al. (J. Pharmacol. Exp. Ther. 143 (1964) 141-148).
Male rats are used which have a weight of about 150-200 g and which have not been fasting. A point is chosen on the tail and this is irradiated by a heat source (75° C.) and the time (in seconds) for which the animal remains without moving its tail is measured.
A maximum period of time under the heat source of 8 seconds is chosen after which the animal is, in any case, removed in order to avoid tissue damage. The measurement is effected before (controls) and after treatment with the drugs.
. The percentage variation is calculated for each individual animal by the following formula: [formula] The measurements are carried out 10, 20, 30, 45, 60 and 90 minutes after treatment with the analgesics.
The results obtained are given in Table 1 which records the groups treated and the doses administered, the
average percentage variations (calculated on groups of five animals) in […]

[2] = test system: guinea pig gall bladder contracted with CCK-8; assay: Anti-CCK activity on guinea pig gall bladders in vitro; type: biochemical; settings: CCK-8 10 ng/ml, concentration antagonising 50% of contracting effect
Description: A longitudinal strip of guinea pig gall bladder is placed in a bath of Krebs for isolated organs at a temperature of 32° C. and oxygenated continuously with an oxygen-CO2 mixture (95-5 V/V).
The […] contractions are detected by means of a force transducer and recorded.
The gall bladder is contracted with the use of a CCK-8 solution at a concentration of 10 ng/ml; the antagonistic activity of the compounds of the invention towards the contracting effect of the CCK is determined with the use of different concentrations, the ED50 value, that is the concentration of the compound in mcg/ml capable of antagonising 50% of the contracting effect of the CCK, being determined.
The results obtained are set out in the following table which gives the compounds tested and the ED50 values which are calculated by the method of regression on a test of at least three experiments for each compound studied.

[3] = test system: tolerance induced by morphine; assay: Antagonism to the development of tolerance to repeated administration of morphine HCl (tail flick); type: in vivo, rats
Description: Several of the compounds of the invention were examined to determine any capacity to antagonise the development of tolerance induced by morphine. Groups of six male rats having a weight of about 200-250 were used.
At intervals of 24 hours from the first treatment (time 0), each animal (except for the control group treated with a physiological solution) received 3 mg/kg of morphine hydrochloride i.p. together with 3 mg/kg i.p. of the compounds indicated (with the exception of the group treated solely with morphine).
The determination of the threshold for the pain stimulus was effected at 15°, 30', 45' and 60' intervals from the treatment by the "tail flick" test.

[4] = test system: analgesic activity of DALA; assay: Tail Flick test: increase in the analgesic activity of DALA (i.c.v.); type: in vivo, rats; settings: b802: 0.001 g/kg
Description: In order to check one of the possible mechanisms for the action of the compounds of the invention, that is, their possible inhibition of the enzymatic degradation of endogenous enkephalins, the following experiment was carried out:
A cannula was implanted in the right lateral ventricle of male rats having a weight of 150-200 g (groups of five animals were used) in order to allow the intracerebroventricular (i.c.v.) administration of drugs according to the method of Noble et al (Life Science 6, (1970) 281-291).
The animals were subsequently treated (i.c.v.) with 3 μg of D-ala-methionine-enkephalinamide (DALA) immediately after an injection (i.c.v.) of the compounds under study at the doses given in Table 4. Analgesia was tested for by the Tail Flick method already mentioned, at the times

[5] = days 0-7, 3 mg/kg + morphine (row Morphine: alone)

Row | Structure (SMILES) | percentage variation in the latency of the pain sensation, 10' [1] | percentage variation in the latency of the pain sensation, 20' [1] | percentage variation in the latency of the pain sensation, 30' [1] | percentage variation in the latency of the pain sensation, 45' [1] | percentage variation in the latency of the pain sensation, 60' [1] | percentage variation in the latency of the pain sensation, 90' [1] | M(10'-90') average percentage variation [1] | Potency ratio relative to morphine alone [1] | Anti CCK-8 activity, ED50 [2] | also measured
1 | O=C(N[C@@H](Cc1c[nH]c2ccccc12)C(=O)O)OCc1ccc(F)cc1 [Compound 1, N-p-fluorocarbobenzoxy-L-tryptophan] | 37.6 ± 12.9% | 89.2 ± 7.3% | 96.4 ± 3.5% | 82.6 ± 12.5% | 87.2 ± 7.8% | 40.6 ± 17.7% | 72.3% | 2.43 | 59.9 µg/mL | percentage variation in the latency time, day 0 ([3]; day 0, 3 mg/kg i.p. + morphine HCl 3 mg/kg i.p. (row Morphine: alone)): 44.25%; percentage variation in the latency time, day 1 ([3]; day 1, 3 mg/kg i.p. + morphine HCl 3 mg/kg i.p. (row Morphine: alone)): 69.33%; percentage variation in the latency time, day 2 ([3]; day 2, 3 mg/kg i.p. + morphine HCl 3 mg/kg i.p. (row Morphine: alone)): 69.21%; percentage variation in the latency time, day 3 ([3]; day 3, 3 mg/kg i.p. + morphine HCl 3 mg/kg i.p. (row Morphine: alone)): 54.03%; percentage variation in the latency time, day 4 ([3]; day 4, 3 mg/kg i.p. + morphine HCl 3 mg/kg i.p. (row Morphine: alone)): 21.91%; percentage variation in the latency time, day 5 ([3]; day 5, 3 mg/kg i.p. + morphine HCl 3 mg/kg i.p. (row Morphine: alone)): 33.35%; percentage variation in the latency time, day 6 ([3]; day 6, 3 mg/kg i.p. + morphine HCl 3 mg/kg i.p. (row Morphine: alone)): 36.44%; percentage variation in the latency time, day 7 ([3]; day 7, 3 mg/kg i.p. + morphine HCl 3 mg/kg i.p. (row Morphine: alone)): 16.1%; Area subtended (1) [3, 5]: 342.6 Effect-Day; regression line % Effect versus Day [3, 5]: % Effect = - 5.97 Day + 63.96; Area 1 / Area Morphine ([3]; days 0-7, 3 mg/kg + morphine, ratio to morphine alone): 2.44
2 | CCCN(CCC)C(=O)C(CCC(=O)O)NC(=O)c1ccccc1 (stereo not drawn) [proglumide, reference compound] | – | – | – | – | – | – | – | – | – | potentiating action on the analgesic effect of DALA (in words) [4]: highly significant
3 | O=C(N[C@@H](Cc1c[nH]c2ccccc12)C(=O)O)c1ccc(Br)cc1 [Compound 13] | 26.7 ± 5.6% | 72.6 ± 13.0% | 77.2 ± 10.0% | 86.2 ± 8.9% | 38.8 ± 11.3% | 12.6 ± 9.8% | 52.3% | 1.75 | 158.0 µg/mL | –
4 | N#Cc1cccc(C(=O)N[C@@H](Cc2c[nH]c3ccccc23)C(=O)O)c1 [Compound 32] | 18.7 ± 6.7% | 60.7 ± 15.5% | 63.7 ± 16.3% | 63.7 ± 16.3% | 45.8 ± 16.1% | 22.8 ± 12.2% | 43.0% | 1.44 | IN (inactive up to 400 mcg/ml) | –
5 | CCCc1ccc(C(=O)N[C@@H](Cc2c[nH]c3ccccc23)C(=O)O)cc1 [Compound 22] | 18.5 ± 5.3% | 39.3 ± 10.5% | 32.2 ± 7.9% | 37.1 ± 13.9% | 35.5 ± 10.0% | 24.5 ± 6.6% | 31.2% | 1.05 | 25.7 µg/mL | –
6 | CCCCCCCc1ccc(C(=O)N[C@@H](Cc2c[nH]c3ccccc23)C(=O)O)cc1 [Compound 27] | 73.8 ± 18.1% | 95.2 ± 4.7% | 86.6 ± 9.0% | 87.7 ± 12.3% | 83.8 ± 9.9% | 88.4 ± 8.5% | 85.9% | 2.88 | 148.5 µg/mL | –
7 | O=C(N[C@@H](Cc1c[nH]c2ccccc12)C(=O)O)c1ccc(Cl)c(Cl)c1 [Compound 17] | 96.9 ± 4.1% | 100.0 ± 0.0% | 100.0 ± 0.0% | 50.3 ± 10.1% | 85.4 ± 11.5% | 29.6 ± 4.5% | 85.0% | 2.85 | 398.0 µg/mL | –
8 | CCc1ccc(COC(=O)N[C@@H](Cc2c[nH]c3ccccc23)C(=O)O)cc1 [Compound 9] | 46.7 ± 14.7% | 62.2 ± 16.5% | 39.6 ± 15.7% | 86.9 ± 8.0% | 46.7 ± 20.4% | 40.8 ± 22.4% | 53.8% | 1.80 | 125.4 µg/mL | –
9 | O=C(N[C@@H](Cc1c[nH]c2ccccc12)C(=O)O)OCc1ccc(C(F)(F)F)cc1 [Compound 7] | 38.3 ± 13.7% | 34.4 ± 5.7% | 44.4 ± 14.8% | 48.3 ± 14.6% | 47.2 ± 16.9% | 47.9 ± 15.4% | 43.4% | 1.45 | 108.7 µg/mL | –
10 | Cc1cccc(C(=O)N[C@@H](Cc2c[nH]c3ccccc23)C(=O)O)c1 [Compound 21] | 30.5 ± 19.7% | 89.0 ± 11.0% | 93.9 ± 6.1% | 85.9 ± 14.1% | 99.2 ± 0.8% | 56.3 ± 17.4% | 77.3% | 2.59 | IN (inactive up to 400 mcg/ml) | –
11 | CC(C)Cc1ccc(C(=O)N[C@@H](Cc2c[nH]c3ccccc23)C(=O)O)cc1 [Compound 24] | 66.9 ± 14.8% | 61.9 ± 17.5% | 84.4 ± 11.6% | 69.1 ± 14.9% | 65.2 ± 11.4% | 32.7 ± 19.9% | 63.4% | 2.13 | 327.7 µg/mL | –
